Test results published in patent publication US20090280196A1, “CISSUS […] PLANT EXTRACTS FOR TREATING OSTEOPOROSIS AND THE EXTRACTION PROCESS THEREOF” (priority 2006, published 2009).

Experiments:
[1] = tested on: osteoclasts (osteoclastic bone resorption); assay: Bone resorption hit screening, CTX release from osteoclasts on bovine bone slices; assay type: cell-based, human; conditions: positive control, V-ATPase blocker, concentration not given
Source text: Studies have determined that osteoclasts are largely derived from CD14 positive monocytes (J. Haemotol, 1999 July; 106(1):167-70). Clonal analysis of haematopoietic cells by surface phenotypes has been used to further identify osteoclast precursor by characterizing osteoclast like cells distinct from other haematopoietic progenitors (Lee et. al; 1992b Muguruma & Lee; 1988). Surface phenotype analysis has shown that human osteoclasts are derived from CD14 monocytes (Massey & Flanagan, 1999). CD 14 marker is strongly expressed on monocytes, the putative osteoclast precursor in peripheral blood and CD14 positive monocytes have been selected for osteoclastogenesis. (Clin. Sci (Lond) 2000, August, 99(2): 133-40).
The osteoclasts were isolated as CD14 positive monocytes and differentiated into osteoclasts for 10-12 days. Hereafter, the osteoclasts were lifted by trypsin, counted and seeded on bovine bone slices at a density of 40000 cells per bone slice. The osteoclasts were seeded on the bone slices for one day before the plant extracts were added. The osteoclasts were hereby allowed to attach and initiate resorption. […]
The bone resorption experiment was ended after 5 days of incubation and the cell viability was measured by the use of the AlamarBlue assay. Bone resorption was evaluated as the determination of the CTX release.

[2] = cited from earlier work

| SMILES | inhibition of osteoclastic bone resorption compared to DMSO [1] | increase of bone mineral density in the spine ([2]; in 18 months, once daily subcutaneous injection) | reduction of the risk of fracture ([2]; patients) |
| --- | --- | --- | --- |
| CO/C1=C\C(C)=C\[C@@H](C)[C@@H](O)[C@@H](C)C/C(C)=C/C=C/[C@H](OC)[C@@H]([C@@H](C)[C@@H](O)[C@H](C)[C@@]2(O)C[C@@H](O)[C@H](C)[C@@H](C(C)C)O2)OC1=O [Bafilomycin] | approximately 80% |  |  |
| CC[C@H](C)[C@H](NC(=O)[C@H](CCC(=O)O)NC(=O)[C@H](CO)NC(=O)[C@@H](NC(=O)[C@@H](N)CO)C(C)C)C(=O)N[C@@H](CCC(N)=O)C(=O)N[C@@H](CC(C)C)C(=O)N[C@@H](CCSC)C(=O)N[C@@H](Cc1cnc[nH]1)C(=O)N[C@@H](CC(N)=O)C(=O)N[C@@H](CC(C)C)C(=O)NCC(=O)N[C@@H](CCCCN)C(=O)N[C@@H](Cc1cnc[nH]1)C(=O)N[C@@H](CC(C)C)C(=O)N[C@@H](CC(N)=O)C(=O)N[C@@H](CO)C(=O)N[C@@H](CCSC)C(=O)N[C@@H](CCC(=O)O)C(=O)N[C@@H](CCCN=C(N)N)C(=O)N[C@H](C(=O)N[C@@H](CCC(=O)O)C(=O)N[C@@H](Cc1c[nH]c2ccccc12)C(=O)N[C@@H](CC(C)C)C(=O)N[C@@H](CCCN=C(N)N)C(=O)N[C@@H](CCCCN)C(=O)N[C@@H](CCCCN)C(=O)N[C@@H](CC(C)C)C(=O)N[C@@H](CCC(N)=O)C(=O)N[C@@H](CC(=O)O)C(=O)N[C@H](C(=O)N[C@@H](Cc1cnc[nH]1)C(=O)N[C@@H](CC(N)=O)C(=O)N[C@@H](Cc1ccccc1)C(=O)O)C(C)C)C(C)C [teriparatide] |  | ≤ 13% | ≤ 90% |
